This note sets out measurements from ChEMBL document CHEMBL1687769, “High cefepime plasma concentrations and neurological toxicity in febrile neutropenic patients with mild impairment of renal function” (Antimicrob Agents Chemother, 2010).

The nature of series [1]: Cmin in febrile neutropenic patient with GFR of <40 ml/min at 2 g administered as 30 mins infusion every 8 hrs measured after 4 days by HPLC analysis. The note with it: human, in vivo, iv, read-out: Cmin. The series is classed as ADME, organism-based.
Series [2] in a line: Cmin in febrile neutropenic patient with neurological disorder at 2 g administered as 30 mins infusion every 8 hrs measured after 4 days by HPLC analysis. The series is classed as ADME, organism-based. The following applies: human, in vivo, iv, read-out: Cmin.
The test system of series [3] is Homo sapiens. The series can be described thus: Neurotoxicity in febrile neutropenic patient assessed as myoclonia at 2 g administered as 30 mins infusion every 8 hrs. Format: toxicity, organism-based. The following applies: in vivo, iv.
Series [4] relates to Homo sapiens. The series can be described thus: Neurotoxicity in febrile neutropenic patient assessed as confusion at 2 g administered as 30 mins infusion every 8 hrs. Format: toxicity, organism-based. The note with it: in vivo, iv.
For series [5], the system named is Homo sapiens. The experiment in a line: Neurotoxicity in febrile neutropenic patient assessed as hallucinations at 2 g administered as 30 mins infusion every 8 hrs. Format: toxicity, organism-based. The note with it: in vivo, iv.

For `CO/N=C(\C(=O)N[C@@H]1C(=O)N2C(C(=O)[O-])=C(C[N+]3(C)CCCC3)CS[C@H]12)c1csc(N)n1` [CEFEPIME], the results for the concentration at 4 days in series [1] and in series [2] were 11400 ng/mL and 28000 ng/mL, respectively. Moreover, the Activity result in series [3], in series [4] and in series [5] was “Toxic” throughout.
